Test results from patent US6271238A, “Acetamide derivatives and protease inhibitors” (Nippon Kayaku Kabushiki Kaisha, priority 1996, dated 2001).
Counter-ions that a name gives are not always drawn. Each block holds one compound with its values, some of them ahead of it.

What was measured:
Human plasmin = molecular target: T1, Human plasmin (Homo sapiens, UniProt P00747); experiment: Inhibitory activity on proteases other than chymase: human plasmin; format: biochemical; conditions: benzyloxycarbonyl valyl leucyl lyzyl methylcoumarylamide substrate; read-out: 50% Inhibitory concentration toward Human plasmin
T1 construct: human plasmin
T1 sequence (P00747 581-810 limits assumed): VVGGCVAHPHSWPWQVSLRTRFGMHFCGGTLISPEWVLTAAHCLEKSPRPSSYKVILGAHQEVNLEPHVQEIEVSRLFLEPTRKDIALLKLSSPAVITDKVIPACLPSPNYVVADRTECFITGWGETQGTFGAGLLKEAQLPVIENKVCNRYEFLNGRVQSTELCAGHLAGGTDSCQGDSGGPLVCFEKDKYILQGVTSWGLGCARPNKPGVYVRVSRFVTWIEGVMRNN
T1 sequence (P00747 97-580 partner limits assumed): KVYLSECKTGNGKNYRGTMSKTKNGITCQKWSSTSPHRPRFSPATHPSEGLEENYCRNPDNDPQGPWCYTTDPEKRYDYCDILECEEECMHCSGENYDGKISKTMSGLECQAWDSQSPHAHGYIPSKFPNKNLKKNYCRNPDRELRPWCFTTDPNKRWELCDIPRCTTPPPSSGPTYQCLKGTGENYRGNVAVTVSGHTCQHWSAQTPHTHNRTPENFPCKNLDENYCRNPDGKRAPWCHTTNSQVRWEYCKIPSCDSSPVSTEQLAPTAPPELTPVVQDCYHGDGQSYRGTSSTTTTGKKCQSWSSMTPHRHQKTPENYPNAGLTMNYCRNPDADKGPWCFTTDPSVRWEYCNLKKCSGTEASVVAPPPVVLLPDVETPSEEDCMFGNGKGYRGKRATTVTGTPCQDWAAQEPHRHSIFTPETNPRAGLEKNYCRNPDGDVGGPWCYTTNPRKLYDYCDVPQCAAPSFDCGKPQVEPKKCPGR
Method: (§1) (E) Measurement of inhibitory activity on proteases other than chymase
(§2) The inhibitory activity of the present compounds on human elastase, human cathepsin G, human urokinase, human thrombin, human plasmin, and human factor Xa was determined using their corresponding synthetic substrates in the same manner as for chymase. All the above proteases were those commercially available from Boehringer Mannheim or purified by a combination of known methods. The synthetic substrates were those produced by Peptide Renkyusho. The synthetic substrates for the respective proteases are as follows.
Human plasmin Benzyloxycarbonyl valyl leucyl lyzyl
(§3) The test was conducted several times. Chymase was prepared for each test in the manner described above. The compounds examined were compounds prepared in the above-described examples.

human chymase = molecular target: T2, human chymase (Homo sapiens, UniProt P23946); experiment: Inhibitory activity on human chymase (angiotensin I as substrate); format: biochemical; conditions: for IC50: substrate angiotensin I, pH 8.0, 37° C., 60 min, read-out: Human Chymase (IC50: nM), 50% inhibitory concentration
T2 construct: 60 g human tonsils were finely divided by scissors and a scalpel; from tissue; host or cells: human tonsils
T2 sequence (P23946 22-247): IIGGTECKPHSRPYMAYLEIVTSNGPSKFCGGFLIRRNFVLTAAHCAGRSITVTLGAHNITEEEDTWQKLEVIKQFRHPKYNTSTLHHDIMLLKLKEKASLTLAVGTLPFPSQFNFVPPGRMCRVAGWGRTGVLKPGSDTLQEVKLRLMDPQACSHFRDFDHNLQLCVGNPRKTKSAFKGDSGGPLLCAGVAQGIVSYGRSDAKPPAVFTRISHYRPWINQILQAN
Description: It is known that chymase is present in tissues of various animals, and its isolation and purification methods are described in Anal. Biochem., 137, 449 (1984) and FEBS Letters, 323, 119 (1993). In the present invention, chymase was purified by the methods described in these literatures, and the present compounds were examined for inhibitory activity on chymase, inhibitory action on activation of mast cells and eosinophils, and pharmacological action in animals. Hereinafter, specific methods are described. 50 g rat tongue was finely divided by scissors and a scalpel, suspended in 0.1 M phosphate buffer (pH 8.0), and disrupted by a Polytron homogenizer for 5 minutes to prepare a crude chymase enzyme solution. […] The supernatant was applied to an octyl Sepharose 4B column (40×100 mm) previously equilibrated with 0.1 M phosphate buffer (pH 8.0) containing 2 M sodium chloride and 5% ammonium sulfate, and the protein was eluted with a linear concentration gradient of from 2 M to 0 M sodium chloride. An active fraction decomposing succinyl leucyl leucyl valyl tyrosyl methylcumarylamide (hereinafter referred to as the synthetic chymase substrate, a product of Peptide Kenkyusho) was recovered and concentrated and this product was used as a purified rat chymase in the following activity measurement. (B) Preparation of human chymase 60 g human tonsils were finely divided by scissors and a scalpel, suspended in 0.1 M phosphate buffer (pH 8.0), and A-disrupted by a Polytron homogenizer for 5 minutes to prepare a crude chymase enzyme solution. It was centrifuged at 22000×g for 30 minutes, and the precipitates were used as a chymase enzyme fraction. […] The supernatant was concentrated by an ultrafiltration membrane, then applied to […] column (6.0×300 mm), and eluted with 0.1 M phosphate buffer (pH 8.0). An active fraction decomposing the synthetic chymase substrate was recovered and concentrated and this product was used as a purified human chymase in the following activity measurement. (D) Measurement of inhibitory activity on chymase (b) Measurement using angiotensin I as substrate The inhibitory activity on the human chymase and dog chymase was measured using angiotensin I (Peptide Kenkyusho) as substrate besides the above synthetic substrate. […] After the end of the reaction, produced angiotensin II was immediately measured by high performance liquid chromatography to determine the activity of the chymase to calculate 50% inhibitory concentration (IC50: nM). The test was conducted several times. Chymase was prepared for each test in the manner described above. The compounds examined were compounds prepared in the above-described examples. […] 50% Inhibitory concentration (IC50: nM) of each compound toward rat chymase, dog […] human […] Substrate: Succinyl leucyl leucyl valyl tyrosyl methylcoumarylamide (for rat […] angiotensin I (for human and dog chymase)

Human elastase = molecular target: T3, Human elastase (Homo sapiens, UniProt P08246); experiment: Inhibitory activity on proteases other than chymase: human elastase; format: biochemical; conditions: succinyl alanyl propyl alanyl methylcoumarylamide substrate; read-out: 50% Inhibitory concentration toward Human elastase
T3 sequence (P08246 30-247 limits assumed): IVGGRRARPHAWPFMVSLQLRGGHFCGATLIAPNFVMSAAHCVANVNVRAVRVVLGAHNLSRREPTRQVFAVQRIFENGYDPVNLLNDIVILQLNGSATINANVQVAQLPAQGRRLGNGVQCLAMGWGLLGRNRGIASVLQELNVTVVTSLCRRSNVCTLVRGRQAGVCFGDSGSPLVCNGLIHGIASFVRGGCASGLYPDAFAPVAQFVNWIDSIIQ
Method: as §1, §2
Human elastase Succinyl alanyl propyl alanyl methylcoumarylamide
as §3

rat mast cells = experiment: Inhibitory action on degranulation of mast cells (histamine release from rat mast cells); format: cell-based; conditions: Mast cell; rat peritoneal mast cells, anti-IgE antibody, 37° C.
Method: Inhibitory action on degranulation of mast cells
(A) Preparation of mast cells
30 ml of mast cell buffer solution (150 mM sodium chloride, 3.7 mM potassium chloride, 3.0 mM disodium hydrogen phosphate, 3.5 mM sodium dihydrogen phosphate, 5.6 mM dextrose, pH 7.0) was injected into the abdomen of a rat(SD, male, 8 to 10 week-old), and intra peritoneal cavity cells were recovered and centrifuged at 800 rpm for 5 minutes, and then the abdomen infiltration cells were recovered as precipitates. The precipitated cells were further washed twice with the mast cell buffer solution, suspended again at a predetermined density, and used in the objective experiment.
(B) Inhibitory action on degranulation of mast cells (inhibitory action on histamine release from rat mast cells)
The mast cells obtained in the procedure in (A) above were suspended at 1×10^5 cells in the mast cell buffer solution and kept at 37° C. 2 μl of each drug and 200 μl of the cell suspension were added into a 1.5 ml test tube previously kept at 37° C. and incubated at 37° C. for 10 minutes. After incubation, 2 μl anti-IgE antibody (BETHYL Lab. Inc.) was added to it and further incubated at 37° C. for 15 minutes. After the end of the reaction, the reaction mixture was immediately cooled on ice and centrifuged at 4° C. at 4000 rpm for 5 minutes, and then the supernatant was stored. Histamine in the supernatant was modified with ortho-phthalaldehyde and measured by high performance liquid chromatography to determine 50% inhibitory concentration (IC50: μM).

SMILES: O=CNc1cnc(-c2ccccc2)n(CC(=O)NC(Cc2ccccc2)C(=O)C(=O)CCCOc2ccccn2)c1=O (centres unmarked) [Compound 79, 2-(5-Formylamino-6-oxo-2-phenyl-1,6-dihydropyrimidine-1-yl)-N-{2,3-dioxo-1-phenylmethyl-6-(2-pyridyloxy)}hexylacetamide]
IC50 (Human plasmin): > 10 µM
inhibitory activity on human chymase, in words (human chymase): strong inhibitory activity on human chymase
IC50 (human chymase): 2.4 nM
IC50 (Human elastase): > 10 µM

SMILES: CC(C)(C)OC(=O)Nc1cnc(-c2ccccc2)n(CC(=O)NC(Cc2ccccc2)C(=O)C(=O)CCCOc2ccccn2)c1=O (centres unmarked) [Compound 74, 2-(5-t-Butyloxycarbonylamino-6-oxo-2-phenyl-1,6-dihydropyrimidine-1-yl)-N-{2,3-dioxo-6-(2-pyridyloxy)-1-phenylmethyl}hexylacetamide]
IC50 (Human plasmin): > 10 µM
inhibitory activity on human chymase, in words (human chymase): strong inhibitory activity on human chymase
IC50 (human chymase): 11 nM
IC50 (Human elastase): 6 µM

SMILES: O=C(Cn1c(-c2ccccc2)ncc(NS(=O)(=O)NCc2ccccc2)c1=O)NC(Cc1ccccc1)C(=O)C(=O)CCCOc1ccccn1 (centres unmarked) [Compound 82, 2-(5-Benzylaminosulfonylamino-6-oxo-2-phenyl-1,6-dihydropyrimidine-1-yl)-N-{2,3-dioxo-1-phenylmethyl-6-(2-pyridyloxy)}hexylacetamide]
IC50 (Human plasmin): > 10 µM
inhibitory activity on human chymase, in words (human chymase): strong inhibitory activity on human chymase
IC50 (human chymase): 0.74 nM
IC50 (Human elastase): 4 µM

IC50 (human chymase): 146 nM
IC50 (rat mast cells): 14 µM
SMILES: CCCCC(=O)C(=O)C(Cc1ccccc1)NC(=O)Cn1c(-c2ccccc2)ncc(N)c1=O (centres unmarked) [Compound 44]

SMILES: Nc1cnc(-c2ccccc2)n(CC(=O)NC(Cc2ccccc2)C(=O)C(=O)CCCc2ccccc2)c1=O (centres unmarked) [Compound 40]
IC50 (Human plasmin): > 10 µM
IC50 (human chymase): 190 nM
IC50 (Human elastase): 1.9 µM
IC50 (rat mast cells): 1.8 µM

IC50 (human chymase): 46 nM
SMILES: Nc1cnc(-c2ccccc2)n(CC(=O)NC(Cc2ccccc2)C(=O)C(=O)CCCn2ccccc2=O)c1=O (centres unmarked) [Compound 73, 2-(5-Amino-6-oxo-2-phenyl-1,6-dihydropyrimidine-1-yl)-N-{2,3-dioxo-1-phenylmethyl-6-(2-oxo-1,2-dihydropyridine-1-yl)}hexylacetamide hydrochloride]
inhibitory activity on human chymase, in words (human chymase): strong inhibitory activity on human chymase

SMILES: CC(=O)C(=O)C(Cc1cccc(F)c1)NC(=O)Cn1c(-c2ccccc2)ncc(N)c1=O (centres unmarked) [Compound 52, 2-(5-Amino-6-oxo-2-phenyl-1,6-dihydropyrimidine-1-yl)-N-{1-(3-fluorophenyl)methyl-2,3-dioxo}butylacetamide]
IC50 (Human plasmin): > 10 µM
IC50 (human chymase): 120 nM
IC50 (Human elastase): > 10 µM
IC50 (rat mast cells): 50 µM

SMILES: CC(C)(C)OC(=O)Nc1cnc(-c2ccccc2)n(CC(=O)NC(Cc2ccccc2)C(=O)C(=O)CCCn2ccccc2=O)c1=O (centres unmarked) [Compound 72, 2-(5-t-Butyloxycarbonylamino-6-oxo-2-phenyl-1,6-dihydropyrimidine-1-yl)-N-{2,3-dioxo-6-(2-oxo-1,2-dihydropyridine-1-yl)-1-phenylmethyl}hexylacetamide]
IC50 (Human plasmin): > 10 µM
inhibitory activity on human chymase, in words (human chymase): strong inhibitory activity on human chymase
IC50 (human chymase): 90 nM
IC50 (Human elastase): 5.5 µM

IC50 (human chymase): 36 nM
IC50 (rat mast cells): 35 µM
SMILES: CCOC(=O)CCCC(=O)C(=O)C(Cc1cccc(F)c1)NC(=O)Cn1c(-c2ccccc2)ncc(N)c1=O (centres unmarked) [Compound 54]
inhibitory activity on human chymase, in words (human chymase): strong inhibitory activity on human chymase

SMILES: CC(=O)Nc1cnc(-c2ccccc2)n(CC(=O)NC(Cc2ccccc2)C(=O)C(=O)CCCOc2ccccn2)c1=O (centres unmarked) [Compound 80, 2-(5-Acetylamino-6-oxo-2-phenyl-1,6-dihydropyrimidine1-yl)-N-{2,3-dioxo-1-phenylmethyl-6-(-2-pyridyloxy)}hexyl-acetamide]
IC50 (Human plasmin): > 10 µM
inhibitory activity on human chymase, in words (human chymase): strong inhibitory activity on human chymase
IC50 (human chymase): 0.9 nM
IC50 (Human elastase): 2.1 µM
